Results on nine molecules are retold here after publication PMC12724303 (Journal of Virology, 2025).

Series [1] relates to Vero E6/TMPRSS2 cells. Type of series: cell-based. As to the method:
A solution of each CyD derivative, prepared in DMEM supplemented with 10% FBS and 1 mg/mL G-418, was filtered and sterilized using a DISMIC-25cs 0.45 µm filter. […] After 24 h, the cells were treated with CyD derivatives and further incubated for 72 h in a humidified incubator at 37°C with 5% CO₂. Cytotoxicity was assessed under a microscope.

The target of series [2] is SARS-CoV-2 spike protein-ACE2 binding (UniProt P0DTC2+Q9BYF1).
Series [3] has as its system JEV Beijing-1 variant (procoagulant activity). Type of series: biochemical, Japanese encephalitis virus.
A further series relates to Vero cells. It is filed as cell-based. Particulars: CCK-8, tested up to 100 mM.
Series [4] relates to Vero E6/TMPRSS2 cells. The following applies: CCK-8, tested up to 100 mM.
For a further series, the system named is red blood cells. Particulars: cited from earlier work.
The next series can be described thus: in vitro. Particulars: African green monkey.
The subject of the next series is Pichinde virus. Particulars: guinea pigs infected with Pichinde virus, treated 6-7 days after infection; cited from earlier work.
Where [5] appears, read: Vero E6/TMPRSS2 cells, 72 h, microscope, twofold dilutions with 10 mM as highest concentration.

Read-outs that look alike come from different tables or passages of the source. A value given as a limit tells only on which side of the number the result lay.

SARS-CoV-2 spike protein-ACE2 binding, sequence (Q9BYF1 18-740, one chain of several): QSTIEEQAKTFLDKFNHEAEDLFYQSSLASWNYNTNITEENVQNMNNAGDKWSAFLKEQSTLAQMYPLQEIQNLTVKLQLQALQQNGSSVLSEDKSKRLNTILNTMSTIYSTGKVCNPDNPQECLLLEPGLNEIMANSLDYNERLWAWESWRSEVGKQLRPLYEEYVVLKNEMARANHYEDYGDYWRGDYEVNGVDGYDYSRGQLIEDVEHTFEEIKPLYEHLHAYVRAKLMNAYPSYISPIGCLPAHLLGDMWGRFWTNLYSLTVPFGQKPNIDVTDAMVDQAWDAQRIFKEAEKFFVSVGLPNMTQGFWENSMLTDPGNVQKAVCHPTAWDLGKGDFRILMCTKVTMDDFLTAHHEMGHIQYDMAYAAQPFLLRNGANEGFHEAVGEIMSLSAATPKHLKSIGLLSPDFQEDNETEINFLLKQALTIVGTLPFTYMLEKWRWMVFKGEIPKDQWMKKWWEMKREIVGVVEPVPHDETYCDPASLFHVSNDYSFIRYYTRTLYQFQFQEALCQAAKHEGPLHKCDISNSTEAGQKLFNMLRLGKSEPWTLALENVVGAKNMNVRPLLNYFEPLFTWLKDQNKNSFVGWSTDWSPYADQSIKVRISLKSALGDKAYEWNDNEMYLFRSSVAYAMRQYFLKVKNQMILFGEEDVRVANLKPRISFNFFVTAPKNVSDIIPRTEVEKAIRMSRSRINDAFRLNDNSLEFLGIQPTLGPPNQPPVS

In the series with Vero E6/TMPRSS2 cells [1] (setting [5]), `OC[C@H]1O[C@@H]2O[C@H]3[C@H](O)[C@@H](O)[C@@H](O[C@H]4[C@H](O)[C@@H](O)[C@@H](O[C@H]5[C@H](O)[C@@H](O)[C@@H](O[C@H]6[C@H](O)[C@@H](O)[C@@H](O[C@H]7[C@H](O)[C@@H](O)[C@@H](O[C@H]1[C@H](O)[C@H]2O)O[C@@H]7CO)O[C@@H]6CO)O[C@@H]5CO)O[C@@H]4CO)O[C@@H]3CO` [α-CyD] yielded a Highest non-toxic concentration of 5.00 mM.

In the case of `COC[C@H]1O[C@@H]2O[C@H]3[C@H](OC(C)=O)[C@@H](OC)[C@@H](O[C@H]4[C@H](OC(C)=O)[C@@H](OC)[C@@H](O[C@H]5[C@H](OC(C)=O)[C@@H](OC)[C@@H](O[C@H]6[C@H](OC(C)=O)[C@@H](OC)[C@@H](O[C@H]7[C@H](OC(C)=O)[C@@H](OC)[C@@H](O[C@H]8[C@H](OC(C)=O)[C@@H](OC)[C@@H](O[C@H]1[C@H](OC(C)=O)[C@H]2OC)O[C@@H]8COC)O[C@@H]7COC)O[C@@H]6COC)O[C@@H]5COC)O[C@@H]4COC)O[C@@H]3COC` [DMA-β-CyD], the “effect on spike protein-ACE2 binding” value in series [2] is recorded as “did not interfere with this interaction”. Also, the “effect on clotting time (JEV procoagulant activity)” value in series [3] (10 mM, 28°C) is given as “clotting time remained similar to that of the control”; in series [3] (10 mM, 37°C) it was “prolonged”. The CC50 in the series on Vero cells and with Vero E6/TMPRSS2 cells [4] was no less than 100 mM in each case. For the same molecule, the hemolysis entry in the series with red blood cells (at 100 mM) was “did not induce hemolysis”.

In the series on Vero E6/TMPRSS2 cells [1] (African green monkey), `COC[C@H]1O[C@@H]2O[C@H]3[C@H](O)[C@@H](OC)[C@@H](O[C@H]4[C@H](O)[C@@H](OC)[C@@H](O[C@H]5[C@H](O)[C@@H](OC)[C@@H](O[C@H]6[C@H](O)[C@@H](OC)[C@@H](O[C@H]7[C@H](O)[C@@H](OC)[C@@H](O[C@H]8[C@H](O)[C@@H](OC)[C@@H](O[C@H]1[C@H](O)[C@H]2OC)O[C@@H]8COC)O[C@@H]7COC)O[C@@H]6COC)O[C@@H]5COC)O[C@@H]4COC)O[C@@H]3COC` [DM-β-CyD, 2,6-di-O-methyl-β-cyclodextrin] registered a Highest non-toxic concentration of 5.00 mM. In addition, the “effect on clotting time (JEV procoagulant activity)” value in series [3] (5 mM, 37°C) is recorded as “had no effect”. The molecule also returned a CC50 in “in vitro” of 5.74 mM. Besides, the “concentration causing 50% hemolysis” value with red blood cells was 1000 µM.

For the molecule hydroxypropyl-α-cyclodextrin [HP-α-CyD], the Highest non-toxic concentration in the series on Vero E6/TMPRSS2 cells [1] (setting [5]) is no less than 10.0 mM.

`OC[C@H]1O[C@@H]2O[C@H]3[C@H](O)[C@@H](O)[C@@H](O[C@H]4[C@H](O)[C@@H](O)[C@@H](O[C@H]5[C@H](O)[C@@H](O)[C@@H](O[C@H]6[C@H](O)[C@@H](O)[C@@H](O[C@H]7[C@H](O)[C@@H](O)[C@@H](O[C@H]8[C@H](O)[C@@H](O)[C@@H](O[C@H]1[C@H](O)[C@H]2O)O[C@@H]8CO)O[C@@H]7CO)O[C@@H]6CO)O[C@@H]5CO)O[C@@H]4CO)O[C@@H]3CO` [β-CyD]: the Highest non-toxic concentration in the series with Vero E6/TMPRSS2 cells [1] (setting [5]) was no less than 10.0 mM.

As to `COC[C@H]1O[C@@H]2O[C@H]3[C@H](OC)[C@@H](OC)[C@@H](O[C@H]4[C@H](OC)[C@@H](OC)[C@@H](O[C@H]5[C@H](OC)[C@@H](OC)[C@@H](O[C@H]6[C@H](OC)[C@@H](OC)[C@@H](O[C@H]7[C@H](OC)[C@@H](OC)[C@@H](O[C@H]8[C@H](OC)[C@@H](OC)[C@@H](O[C@H]1[C@H](OC)[C@H]2OC)O[C@@H]8COC)O[C@@H]7COC)O[C@@H]6COC)O[C@@H]5COC)O[C@@H]4COC)O[C@@H]3COC` [TM-β-CyD], the Highest non-toxic concentration in the series with Vero E6/TMPRSS2 cells [1] (setting [5]) was 1.25 mM.

In the case of `OC[C@H]1O[C@@H]2O[C@H]3[C@H](O)[C@@H](O)[C@@H](O[C@H]4[C@H](O)[C@@H](O)[C@@H](O[C@H]5[C@H](O)[C@@H](O)[C@@H](O[C@H]6[C@H](O)[C@@H](O)[C@@H](O[C@H]7[C@H](O)[C@@H](O)[C@@H](O[C@H]8[C@H](O)[C@@H](O)[C@@H](O[C@H]9[C@H](O)[C@@H](O)[C@@H](O[C@H]1[C@H](O)[C@H]2O)O[C@@H]9CO)O[C@@H]8CO)O[C@@H]7CO)O[C@@H]6CO)O[C@@H]5CO)O[C@@H]4CO)O[C@@H]3CO` [γ-CyD], the Highest non-toxic concentration in the series on Vero E6/TMPRSS2 cells [1] (setting [5]) came out at 2.50 mM.

In the case of `COC[C@H]1O[C@@H]2O[C@H]3[C@H](O)[C@@H](OC)[C@@H](O[C@H]4[C@H](O)[C@@H](OC)[C@@H](O[C@H]5[C@H](O)[C@@H](OC)[C@@H](O[C@H]6[C@H](O)[C@@H](OC)[C@@H](O[C@H]7[C@H](O)[C@@H](OC)[C@@H](O[C@H]1[C@H](O)[C@H]2OC)O[C@@H]7COC)O[C@@H]6COC)O[C@@H]5COC)O[C@@H]4COC)O[C@@H]3COC` [DM-α-CyD], the Highest non-toxic concentration with Vero E6/TMPRSS2 cells [1] (setting [5]) turned out to be 2.50 mM.

B1: bavituximab (antibody, chains of the INN, looked up, V domains shown)
VH: EVQLQQSGPELEKPGASVKLSCKASGYSFTGYNMNWVKQSHGKSLEWIGHIDPYYGDTSYNQKFRGKATLTVDKSSSTAYMQLKSLTSEDSAVYYCVKGGYYGHWYFDVWGAGTTVTVSS
VL: DIQMTQSPSSLSASLGERVSLTCRASQDIGSSLNWLQQGPDGTIKRLIYATSSLDSGVPKRFSGSRSGSDYSLTISSLESEDFVDYYCLQYVSSPPTFGAGTKLELK
As to B1, in the series on Pichinde virus, the animals survived is 50%.
